# Experimental data published in patent US11498929B2, “Chromenopyrimidine derivatives as phosphatidylinsitol phosphate kinase inhibitors” (Hibercell, Inc., priority 2019, dated 2022).
# Tests used:
# [1] = molecular target: T1, PIP4K2A (Homo sapiens, UniProt P48426); experiment: Kinase Assay - PIP4K2 A (inhibition of PIP4K2 A kinase assay); assay type: biochemical; settings: compounds listed under IC50 bin headings
# T1 construct: GST; made in house; host or cells: E. coli
# T1 sequence (P48426 1-406): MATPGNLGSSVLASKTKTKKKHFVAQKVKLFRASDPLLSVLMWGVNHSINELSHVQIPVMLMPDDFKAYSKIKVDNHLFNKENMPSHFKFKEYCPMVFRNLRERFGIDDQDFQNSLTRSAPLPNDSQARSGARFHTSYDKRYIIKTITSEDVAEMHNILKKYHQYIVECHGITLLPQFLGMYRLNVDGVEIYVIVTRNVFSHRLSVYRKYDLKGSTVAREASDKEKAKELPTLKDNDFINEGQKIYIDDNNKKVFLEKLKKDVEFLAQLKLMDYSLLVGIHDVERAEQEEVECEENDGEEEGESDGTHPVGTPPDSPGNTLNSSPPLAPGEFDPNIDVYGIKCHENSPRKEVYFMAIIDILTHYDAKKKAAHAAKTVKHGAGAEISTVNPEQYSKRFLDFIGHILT
# Method: Dilution series of the compounds were prepared in DMSO at 100 times the final assay concentration (n1=n0/3 in 10 points). The compounds were further diluted to three times the assay concentration in assay buffer (20 mM MOPS pH 7.2, 25 mM magnesium chloride, 0.005% Tween 20). 6 μL of the diluted compounds were added to a 384 well assay plate followed by 9 μL of a mix consisting of 4 nM PIP4K2A (full length protein, SignalChem) and 100 μM PI(5)P diC8 (Tebu-Bio). Enzyme and compounds were pre-incubated at room temperature for 15 minutes.
# Then 3 μL of a solution containing 60 μM ATP (Promega) in assay buffer was added to the wells containing compound and enzyme and mixing was performed by pipetting several times. The reaction was incubated at room temperature for 1 h. Then 18 μL of ADP-Glo™ Reagent (Promega) was added to stop the kinase reaction and deplete the unconsumed ATP, mixing was performed by pipetting several times. The plate was incubated at room temperature for 40 minutes before addition of 36 μL of Kinase Detection Reagent (Promega) to convert ADP to ATP and introduce luciferase and luciferin to detect ATP. The reaction was incubated at room temperature for 40 minutes before the luminescence was measured in a in a Victor 3V 1420 multilabel counter (Perkin Elmer).
# Percent inhibition of the compounds as compared to dimethyl sulfoxide treated control samples was calculated. Compound concentration versus percent inhibition were fitted to generate IC50 values. […]
# [2] = molecular target: T2, PIP4K2 B (GST-tagged PIP4KtypeIIB) (Homo sapiens, UniProt P78356); experiment: Kinase Assay - PIP4K2 B (inhibition of PIP4K2 B kinase assay); assay type: biochemical; settings: compounds listed under IC50 bin headings
# T2 construct: GST; made in house; host or cells: E. coli
# T2 sequence (P78356 1-416): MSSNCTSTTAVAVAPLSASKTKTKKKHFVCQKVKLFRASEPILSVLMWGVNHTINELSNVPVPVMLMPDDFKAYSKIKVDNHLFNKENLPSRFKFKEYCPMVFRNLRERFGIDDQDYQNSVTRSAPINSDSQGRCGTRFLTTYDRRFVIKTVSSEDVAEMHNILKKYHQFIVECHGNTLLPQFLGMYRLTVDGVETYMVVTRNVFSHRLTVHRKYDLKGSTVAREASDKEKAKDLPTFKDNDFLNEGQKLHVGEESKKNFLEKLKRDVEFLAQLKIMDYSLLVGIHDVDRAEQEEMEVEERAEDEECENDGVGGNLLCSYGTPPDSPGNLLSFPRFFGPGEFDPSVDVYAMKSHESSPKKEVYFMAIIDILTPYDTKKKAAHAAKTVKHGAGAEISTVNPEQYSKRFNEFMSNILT
# Description: GST tagged PIP4KtypeIIA and B enzymes were overexpressed in E. Coli and purified to >80% homogeneity. Phosphatidyl inositol-5-phosphate (PI5P, Cat. #850152, Avanti Polar Lipids Inc.) was used as the lipid substrate and phosphatidyl ethanolamine (DOPE 18:1, Cat. #850725, Avanti Polar Lipids Inc.) was used as the carrier lipid for assays. Ultrapure ATP and GTP was purchased from Bellbrooke Labs. ADP Glo reagents were obtained from Promega. Transcreener FI reagent was obtained from Bellbrooke labs.
# GST-tagged PIP4KtypeIIB (3.4 uL, 2.77 mg/mL) was diluted to 5 mL using HNE buffer to yield 5× enzyme stock (25 nM)
# Lipid Preparation: In a 10 mL pyrex glass vial, 1 ug of PI5P and 1 ug of DOPE were suspended in 2.5 mL of HEPES buffer mix and 2.5 mL of H:E buffer. The contents were mixed and sonicated for 3 min to yield a translucent lipid stock.
# Compound Preparation: Compounds were stored as 5 mM stocks in neat DMSO as room temperature in glass vials. 5 mM stocks were diluted to 2 mM and then serially diluted (3×) in neat DMSO in 96 well polypropylene plates. From the serially diluted stocks, 3 uL was delivered into 250 uL of 25% DMSO (in water) to generate 5× compound stocks. Typically, the highest compound conc. was 24 uM.
# The assay volume was kept at 25 uL. To each well of the reaction plate, 10 uL of lipid stock (1:1 ratio PI5P:DOPE) was delivered. This was followed by the addition of 5 uL of compound in 25% DMSO. Then, to each well, 5 uL of 25 nM (5×) typeIIB enzyme was delivered. The contents were mixed well and incubated for 1 h at 27 C. After 1 h, reaction was initiated by adding 5 uL of 500 uM GTP and the contents were mixed well with a multi-channel pipetteman. The final concentration of the reagents are as follows: 50 mM HEPES, pH 7.3, 10 mM MgCl2, 20 mM NaCl, 0.01% v/v triton-X100, 5% DMSO, 100 uM GTP, 80 uM (2 ug) PI5P, 2 ug DOPE, and 5 nM PIP4KIIB Typically, the highest conc. of compounds was 4.8 uM and the lowest conc. was 0.
# After 2 h, the reaction was quenched by adding 25 uL of transcreener FI reagent. The contents were incubated at RT for 1 h and the Fluorescence (Ex:584 Em: 623) was read using Molecular Devices Paradigm plate reader. […] The blanks were averaged and subtracted from all other wells. Using a calibration curve, RFU was converted to uM GDP (product). IC50 was calculated by plotting the residual activity (expressed as % No inhibitor control) vs. log [Inh. conc.]
# [3] = system: MOLM-16; experiment: MOLM-16 EC50 assay; assay type: cell-based; settings: MOLM16
Structure (SMILES),IC50 [1],IC50 [2],EC50 [3]
"CNC(=O)N1CCOc2ncc(Nc3ncc4c(n3)C(C)(C)Oc3cc(-c5nocc5C)ccc3-4)cc21 [Compound 11, 7-{[5,5-dimethyl-8-(4-methyl-1,2-oxazol-3-yl)-5H-chromeno[3,4-d]pyrimidin-3-yl]amino}-N-methyl-1H,2H,3H-pyrido[2,3-b][1,4]oxazine-1-carboxamide]",≤ 1 nM,1 to 10 nM,100 to 1000 nM
"CC(=O)OC(C)C(=O)N1CCOc2ncc(Nc3ncc4c(n3)C(C)(C)Oc3cc(-n5nncc5C)ccc3-4)cc21 (stereo not drawn) [Compound 12, 1-(7-{[5,5-dimethyl-8-(5-methyl-1H-1,2,3-triazol-1-yl)-5H-chromeno[3,4-d]pyrimidin-3-yl]amino}-1H,2H,3H-pyrido[2,3-b][1,4]oxazin-1-yl)-1-oxopropan-2-yl acetate]",≤ 1 nM,1 to 10 nM,> 1000 nM
"Cc1cnnn1-c1ccc2c(c1)OC(C)(C)c1nc(Nc3cnc4c(c3)N(CC3COC3)CCO4)ncc1-2 [Compound 13, 5,5-dimethyl-8-(5-methyl-1H-1,2,3-triazol-1-yl)-N-{1-[(oxetan-3-yl)methyl]-1H,2H,3H-pyrido[2,3-b][1,4]oxazin-7-yl}-5H-chromeno[3,4-d]pyrimidin-3-amine]",≤ 1 nM,1 to 10 nM,100 to 1000 nM
"Cc1cnnn1-c1ccc2c(c1)OC(C)(C)c1nc(Nc3cncc(CNCCS(C)(=O)=O)c3)ncc1-2 [Compound 14, N-[5,5-dimethyl-8-(5-methyl-1H-1,2,3-triazol-1-yl)-5H-chromeno[3,4-d]pyrimidin-3-yl]-5-{[(2-methanesulfonylethyl)amino]methyl}pyridin-3-amine]",≤ 1 nM,1 to 10 nM,> 1000 nM
"Cc1conc1-c1ccc2c(c1)OC(C)(C)c1nc(Nc3cnc4c(c3)N(C(=O)N(C)C)CCO4)ncc1-2 [Compound 15, 7-{[5,5-dimethyl-8-(4-methyl-1,2-oxazol-3-yl)-5H-chromeno[3,4-d]pyrimidin-3-yl]amino}-N,N-dimethyl-1H,2H,3H-pyrido[2,3-b][1,4]oxazine-1-carboxamide]",≤ 1 nM,1 to 10 nM,100 to 1000 nM
"CCN1CCN(Cc2cncc(Nc3ncc4c(n3)C(C)(C)Oc3cc(-n5nncc5C)ccc3-4)c2)CC1 [Compound 17, N-[5,5-dimethyl-8-(5-methyl-1H-1,2,3-triazol-1-yl)-5H-chromeno[3,4-d]pyrimidin-3-yl]-5-[(4-ethylpiperazin-1-yl)methyl]pyridin-3-amine]",≤ 1 nM,1 to 10 nM,100 to 1000 nM

# Next, values leading:
IC50 [1],IC50 [2],EC50 [3],Structure (SMILES)
≤ 1 nM,1 to 10 nM,100 to 1000 nM,"CNC(=O)N1CCOc2ncc(Nc3ncc4c(n3)C(C)(C)Oc3cc(-n5nncc5C)ccc3-4)cc21 [Compound 8, 7-{[5,5-dimethyl-8-(5-methyl-1H-1,2,3-triazol-1-yl)-5H-chromeno[3,4-d]pyrimidin-3-yl]amino}-N-methyl-1H,2H,3H-pyrido[2,3-b][1,4]oxazine-1-carboxamide]"
≤ 1 nM,1 to 10 nM,100 to 1000 nM,"Cc1cnnn1-c1ccc2c(c1)OC(C)(C)c1nc(Nc3cnc4c(c3)N(C(=O)NC3CC3)CCO4)ncc1-2 [Compound 9, N-cyclopropyl-7-{[5,5-dimethyl-8-(5-methyl-1H-1,2,3-triazol-1-yl)-5H-chromeno[3,4-d]pyrimidin-3-yl]amino}-1H,2H,3H-pyrido[2,3-b][1,4]oxazine-1-carboxamide]"
≤ 1 nM,1 to 10 nM,100 to 1000 nM,"Cc1cnnn1-c1ccc2c(c1)OC(C)(C)c1nc(Nc3cnc4c(c3)N(C(=O)CN(C)C)CCO4)ncc1-2 [Compound 10, 1-(7-{[5,5-dimethyl-8-(5-methyl-1H-1,2,3-triazol-1-yl)-5H-chromeno[3,4-d]pyrimidin-3-yl]amino}-1H,2H,3H-pyrido[2,3-b][1,4]oxazin-1-yl)-2-(dimethylamino)ethan-1-one]"
≤ 1 nM,1 to 10 nM,> 1000 nM,"CC(=O)OC1(C(=O)N2CCOc3ncc(Nc4ncc5c(n4)C(C)(C)Oc4cc(-n6nncc6C)ccc4-5)cc32)CC1 [Compound 16, 1-(7-{[5,5-dimethyl-8-(5-methyl-1H-1,2,3-triazol-1-yl)-5H-chromeno[3,4-d]pyrimidin-3-yl]amino}-1H,2H,3H-pyrido[2,3-b][1,4]oxazine-1-carbonyl)cyclopropyl acetate]"
1 to 10 nM,10 to 100 nM,10 to 100 nM,"CC1(C)Oc2cc(N3CCCC3=O)ccc2-c2cnc(Nc3cncc(N4CCN(CCO)CC4)c3)nc21 [Compound 19, 1-[3-({5-[4-(2-hydroxyethyl)piperazin-1-yl]pyridin-3-yl}amino)-5,5-dimethyl-5H-chromeno[3,4-d]pyrimidin-8-yl]pyrrolidin-2-one]"
1 to 10 nM,10 to 100 nM,10 to 100 nM,"CN1CCN(CC(=O)N2CCOc3ncc(Nc4ncc5c(n4)C(C)(C)Oc4cc(N6CCCC6=O)ccc4-5)cc32)CC1 [Compound 22, 1-[5,5-dimethyl-3-({1-[2-(4-methylpiperazin-1-yl)acetyl]-1H,2H,3H-pyrido[2,3-b][1,4]oxazin-7-yl}amino)-5H-chromeno[3,4-d]pyrimidin-8-yl]pyrrolidin-2-one]"
1 to 10 nM,10 to 100 nM,10 to 100 nM,"CC1(C)Oc2cc(N3CCCC3=O)ccc2-c2cnc(Nc3cnc4c(c3)N(C(=O)NC3CC3)CCO4)nc21 [Compound 23, N-cyclopropyl-7-{[5,5-dimethyl-8-(2-oxopyrrolidin-1-yl)-5H-chromeno[3,4-d]pyrimidin-3-yl]amino}-1H,2H,3H-pyrido[2,3-b][1,4]oxazine-1-carboxamide]"
1 to 10 nM,10 to 100 nM,10 to 100 nM,"CN(C)C1CCN(c2cncc(Nc3ncc4c(n3)C(C)(C)Oc3cc(N5CCCC5=O)ccc3-4)c2)CC1 [Compound 25, 1-[3-({5-[4-(dimethylamino)piperidin-1-yl]pyridin-3-yl}amino)-5,5-dimethyl-5H-chromeno[3,4-d]pyrimidin-8-yl]pyrrolidin-2-one]"
